Values after ≈ are worked out from the molar mass of the structure shown.
How the values were obtained:
[1] = target: Metabotropic glutamate receptor 4 (Rattus norvegicus) (UniProt P31423); test: Positive allosteric modulation of rat mGlu4 receptor expressed in HEK293 cells co- expressing GIRK channel by thallium mobilization assay relative to control; format: cell-based
[2] = target: Metabotropic glutamate receptor 4 (Rattus norvegicus, UniProt P31423); test: Positive allosteric modulation of rat mGlu4 receptor expressed in HEK293 cells co- expressing GIRK channel by thallium mobilization assay; format: cell-based
Metabotropic glutamate receptor 4, sequence (P31423 whole entry): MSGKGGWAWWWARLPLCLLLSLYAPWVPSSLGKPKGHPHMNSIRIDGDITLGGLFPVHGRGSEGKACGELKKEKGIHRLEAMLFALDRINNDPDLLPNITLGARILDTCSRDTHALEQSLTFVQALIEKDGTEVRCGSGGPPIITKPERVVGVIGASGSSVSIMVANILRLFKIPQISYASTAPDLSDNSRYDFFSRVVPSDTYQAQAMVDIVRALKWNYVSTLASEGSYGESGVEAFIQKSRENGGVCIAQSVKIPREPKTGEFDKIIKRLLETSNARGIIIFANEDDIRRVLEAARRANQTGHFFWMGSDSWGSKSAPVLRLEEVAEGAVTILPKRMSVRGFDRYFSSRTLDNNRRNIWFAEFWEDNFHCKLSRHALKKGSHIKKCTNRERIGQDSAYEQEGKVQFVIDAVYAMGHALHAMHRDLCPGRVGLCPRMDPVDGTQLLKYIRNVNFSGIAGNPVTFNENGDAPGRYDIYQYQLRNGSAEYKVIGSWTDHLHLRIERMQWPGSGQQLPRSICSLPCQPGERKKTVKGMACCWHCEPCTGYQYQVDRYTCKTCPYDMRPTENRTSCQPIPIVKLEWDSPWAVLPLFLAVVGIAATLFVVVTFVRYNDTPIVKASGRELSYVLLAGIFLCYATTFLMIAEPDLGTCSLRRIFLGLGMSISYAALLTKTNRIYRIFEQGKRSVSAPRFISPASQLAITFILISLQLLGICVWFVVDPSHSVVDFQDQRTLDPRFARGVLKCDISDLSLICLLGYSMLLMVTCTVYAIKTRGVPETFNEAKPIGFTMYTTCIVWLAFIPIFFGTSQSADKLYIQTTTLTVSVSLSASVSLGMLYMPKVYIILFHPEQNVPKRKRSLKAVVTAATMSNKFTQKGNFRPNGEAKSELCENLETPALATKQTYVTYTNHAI

[3] = Ratio of drug level in rat brain to plasma assessed as unbound permeability coefficient at 0.2 mg/kg, iv; format: ADME, organism-based; conditions: read-out: K(p,uu,brain)
[4] = Protein binding in rat brain assessed as unbound fraction; format: ADME, tissue-based
[5] = Protein binding in rat plasma assessed as unbound fraction; format: ADME, cell-free
[6] = Ratio of drug level in rat brain to plasma assessed as permeability coefficient at 0.2 mg/kg, iv; format: ADME, organism-based
[7] = Protein binding in human plasma assessed as unbound fraction; format: ADME, cell-free
Rattus norvegicus [8] = test: Reversal of haloperidol-induced catalepsy in Sprague-Dawley rat assessed as reduction in catalepsy at 10 mg/kg, ip and measured after 15 mins relative to untreated control; format: functional; conditions: 0.25 h
Rattus norvegicus [9] = test: Reversal of haloperidol-induced catalepsy in Sprague-Dawley rat administered intraperitoneally and measured after 15 mins; format: functional, organism-based; conditions: dose 3-30 mg/kg
[10] = target: Metabotropic glutamate receptor 5 (Homo sapiens, UniProt P41594); test: Binding affinity to mGlu5 (unknown origin)
[11] = target: Metabotropic glutamate receptor 3 (Homo sapiens, UniProt Q14832); test: Binding affinity to mGlu3 (unknown origin)
Metabotropic glutamate receptor 3, sequence (Q14832 whole entry): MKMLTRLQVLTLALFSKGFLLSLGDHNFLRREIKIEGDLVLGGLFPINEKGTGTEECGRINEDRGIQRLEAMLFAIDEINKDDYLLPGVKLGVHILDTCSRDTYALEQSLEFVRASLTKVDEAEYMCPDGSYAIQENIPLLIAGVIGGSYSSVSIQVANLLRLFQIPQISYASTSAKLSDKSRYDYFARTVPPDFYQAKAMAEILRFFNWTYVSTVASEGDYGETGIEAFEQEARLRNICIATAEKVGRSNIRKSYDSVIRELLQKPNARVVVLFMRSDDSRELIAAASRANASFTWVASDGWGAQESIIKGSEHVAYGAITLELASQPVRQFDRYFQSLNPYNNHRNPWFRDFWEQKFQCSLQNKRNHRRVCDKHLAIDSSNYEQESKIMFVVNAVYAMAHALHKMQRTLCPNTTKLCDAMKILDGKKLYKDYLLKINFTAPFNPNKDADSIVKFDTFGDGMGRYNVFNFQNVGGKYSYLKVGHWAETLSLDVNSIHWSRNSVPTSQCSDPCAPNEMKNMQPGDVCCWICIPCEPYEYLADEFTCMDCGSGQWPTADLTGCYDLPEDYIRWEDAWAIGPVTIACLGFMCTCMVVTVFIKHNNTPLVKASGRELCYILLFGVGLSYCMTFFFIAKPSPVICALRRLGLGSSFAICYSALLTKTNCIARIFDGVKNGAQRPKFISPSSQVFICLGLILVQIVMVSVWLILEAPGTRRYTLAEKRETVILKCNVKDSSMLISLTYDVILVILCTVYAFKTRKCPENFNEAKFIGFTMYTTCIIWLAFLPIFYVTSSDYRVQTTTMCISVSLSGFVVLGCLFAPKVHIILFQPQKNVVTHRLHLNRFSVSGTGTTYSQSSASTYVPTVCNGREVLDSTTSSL

[12] = target: Metabotropic glutamate receptor 2 (Homo sapiens, UniProt Q14416); test: Displacement of [3H]LY341495 from full length human recombinant mGluR2 expressed in Chem-1 cells incubated for 60 mins by radiometric scintillation counting analysis; format: cell-based
Metabotropic glutamate receptor 2, sequence (Q14416 whole entry): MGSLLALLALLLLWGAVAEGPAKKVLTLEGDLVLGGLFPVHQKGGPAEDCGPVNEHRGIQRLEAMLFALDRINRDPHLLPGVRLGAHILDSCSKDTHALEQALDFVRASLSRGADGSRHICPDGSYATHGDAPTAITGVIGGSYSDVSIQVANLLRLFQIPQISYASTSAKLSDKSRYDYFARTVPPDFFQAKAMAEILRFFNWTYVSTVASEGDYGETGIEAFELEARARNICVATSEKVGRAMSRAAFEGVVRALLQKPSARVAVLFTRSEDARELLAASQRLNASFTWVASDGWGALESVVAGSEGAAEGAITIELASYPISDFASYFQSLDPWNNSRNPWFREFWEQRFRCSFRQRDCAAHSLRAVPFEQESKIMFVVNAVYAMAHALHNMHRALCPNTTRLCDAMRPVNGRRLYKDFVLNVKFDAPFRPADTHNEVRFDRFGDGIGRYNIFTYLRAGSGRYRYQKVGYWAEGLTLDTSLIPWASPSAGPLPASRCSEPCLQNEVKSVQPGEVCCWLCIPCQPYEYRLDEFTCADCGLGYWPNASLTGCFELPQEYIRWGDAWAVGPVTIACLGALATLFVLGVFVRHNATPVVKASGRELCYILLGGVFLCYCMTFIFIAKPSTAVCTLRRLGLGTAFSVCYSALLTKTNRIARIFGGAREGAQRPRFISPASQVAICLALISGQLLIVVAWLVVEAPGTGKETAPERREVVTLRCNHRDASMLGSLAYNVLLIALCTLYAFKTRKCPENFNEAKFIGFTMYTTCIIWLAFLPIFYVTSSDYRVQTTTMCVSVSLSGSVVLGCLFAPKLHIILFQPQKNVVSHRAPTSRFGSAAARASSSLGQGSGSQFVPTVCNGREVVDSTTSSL

[13] = target: Metabotropic glutamate receptor 1 (Rattus norvegicus, UniProt P23385); test: Displacement of [3H]quisqualate from mGluR1 from rat brain incubated for 60 mins by radiometric scintillation counting analysis; format: tissue-based
Metabotropic glutamate receptor 1, sequence (P23385 whole entry): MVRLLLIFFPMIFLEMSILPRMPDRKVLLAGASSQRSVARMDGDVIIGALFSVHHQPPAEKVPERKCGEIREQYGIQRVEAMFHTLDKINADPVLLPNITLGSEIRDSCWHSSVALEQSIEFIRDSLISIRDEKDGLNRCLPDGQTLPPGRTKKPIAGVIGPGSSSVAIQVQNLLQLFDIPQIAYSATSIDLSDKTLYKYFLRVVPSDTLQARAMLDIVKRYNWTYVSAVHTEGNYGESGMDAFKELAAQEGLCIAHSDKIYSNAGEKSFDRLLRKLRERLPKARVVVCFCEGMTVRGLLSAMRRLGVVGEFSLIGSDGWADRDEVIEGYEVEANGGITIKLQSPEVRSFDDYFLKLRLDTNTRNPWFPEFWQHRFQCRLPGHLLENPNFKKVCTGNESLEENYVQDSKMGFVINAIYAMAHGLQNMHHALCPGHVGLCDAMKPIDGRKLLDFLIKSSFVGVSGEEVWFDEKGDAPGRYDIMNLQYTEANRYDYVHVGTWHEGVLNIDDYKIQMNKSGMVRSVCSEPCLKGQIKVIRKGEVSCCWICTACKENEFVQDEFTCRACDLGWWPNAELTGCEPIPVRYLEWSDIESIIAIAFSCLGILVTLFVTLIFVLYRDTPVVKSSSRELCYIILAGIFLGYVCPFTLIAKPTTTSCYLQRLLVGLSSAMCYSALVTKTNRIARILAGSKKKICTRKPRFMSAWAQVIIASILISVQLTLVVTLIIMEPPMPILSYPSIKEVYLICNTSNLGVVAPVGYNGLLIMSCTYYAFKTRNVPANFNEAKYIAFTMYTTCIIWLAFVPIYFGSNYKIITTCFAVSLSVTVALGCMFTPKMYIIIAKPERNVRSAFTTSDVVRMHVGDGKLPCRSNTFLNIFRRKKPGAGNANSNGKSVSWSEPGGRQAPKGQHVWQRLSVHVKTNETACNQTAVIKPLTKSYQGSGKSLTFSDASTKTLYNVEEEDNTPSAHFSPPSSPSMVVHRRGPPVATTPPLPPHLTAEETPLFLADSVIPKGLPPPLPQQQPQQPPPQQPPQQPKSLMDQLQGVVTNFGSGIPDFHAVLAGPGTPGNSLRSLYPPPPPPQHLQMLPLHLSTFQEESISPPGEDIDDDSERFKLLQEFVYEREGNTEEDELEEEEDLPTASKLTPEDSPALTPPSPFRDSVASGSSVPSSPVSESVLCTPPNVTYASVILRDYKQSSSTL

Rattus norvegicus [14] = test: Reversal of haloperidol-induced catalepsy in Sprague-Dawley rat assessed as latency time for withdrawl at 30 mg/kg, ip and measured after 15 mins (reference value: 49.8 sec); format: functional; conditions: 0.25 h
[15] = target: Metabotropic glutamate receptor 7 (Homo sapiens, UniProt Q14831); test: Binding affinity to mGlu7 (unknown origin)
Metabotropic glutamate receptor 7, sequence (Q14831 whole entry): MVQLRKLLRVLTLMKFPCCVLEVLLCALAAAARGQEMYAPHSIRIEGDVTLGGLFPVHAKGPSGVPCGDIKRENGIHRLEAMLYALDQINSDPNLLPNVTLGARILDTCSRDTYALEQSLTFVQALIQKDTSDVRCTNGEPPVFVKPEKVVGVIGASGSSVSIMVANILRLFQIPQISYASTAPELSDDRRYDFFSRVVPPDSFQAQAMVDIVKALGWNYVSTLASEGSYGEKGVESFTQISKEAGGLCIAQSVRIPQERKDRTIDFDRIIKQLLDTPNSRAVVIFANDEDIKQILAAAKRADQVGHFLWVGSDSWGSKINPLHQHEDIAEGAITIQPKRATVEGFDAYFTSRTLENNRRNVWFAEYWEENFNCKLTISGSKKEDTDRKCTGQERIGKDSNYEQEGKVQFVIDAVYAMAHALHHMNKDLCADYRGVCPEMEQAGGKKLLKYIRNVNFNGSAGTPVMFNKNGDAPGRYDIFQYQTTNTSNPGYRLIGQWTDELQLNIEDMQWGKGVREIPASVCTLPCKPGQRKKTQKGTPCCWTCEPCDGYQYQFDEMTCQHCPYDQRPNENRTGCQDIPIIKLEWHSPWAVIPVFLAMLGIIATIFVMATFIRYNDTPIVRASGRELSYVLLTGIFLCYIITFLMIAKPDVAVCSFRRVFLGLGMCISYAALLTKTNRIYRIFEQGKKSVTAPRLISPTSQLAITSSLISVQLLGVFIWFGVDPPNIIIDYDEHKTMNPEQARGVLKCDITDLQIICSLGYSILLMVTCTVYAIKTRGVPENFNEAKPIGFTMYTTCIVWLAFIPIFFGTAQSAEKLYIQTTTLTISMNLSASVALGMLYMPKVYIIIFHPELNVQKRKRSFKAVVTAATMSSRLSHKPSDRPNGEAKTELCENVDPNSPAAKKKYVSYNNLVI

Rattus norvegicus [16] = test: Reversal of haloperidol-induced catalepsy in Sprague-Dawley rat assessed as reduction in catalepsy at 30 mg/kg, ip and measured after 15 mins relative to untreated control; format: functional; conditions: 0.25 h
Rattus norvegicus [17] = test: Reversal of haloperidol-induced catalepsy in Sprague-Dawley rat assessed as latency time for withdrawl at 3 mg/kg, ip and measured after 15 mins (reference value: 49.8 sec); format: functional; conditions: 0.25 h
Rattus norvegicus [18] = test: Reversal of haloperidol-induced catalepsy in Sprague-Dawley rat assessed as reduction in catalepsy at 3 mg/kg, ip and measured after 15 mins relative to untreated control; format: functional; conditions: 0.25 h
[19] = Kinetic solubility of compound; format: physicochemical; conditions: read-out: Kinetic_solubility
Rattus norvegicus [20] = test: Reversal of haloperidol-induced catalepsy in Sprague-Dawley rat assessed as latency time for withdrawl at 10 mg/kg, ip and measured after 15 mins (reference value: 49.8 sec); format: functional; conditions: 0.25 h
Rattus norvegicus [21] = test: Reversal of haloperidol-induced catalepsy in ip dosed Sprague-Dawley rat assessed as reduction in catalepsy measured after 15 mins relative to untreated control; format: functional; conditions: 0.25 h
Rattus norvegicus [22] = test: Reversal of haloperidol-induced catalepsy in ip dosed Sprague-Dawley rat assessed as latency time for withdrawl measured after 15 mins (reference value: 49.8 sec); format: functional; conditions: 0.25 h
[23] = filed as positive allosteric modulator

Metabotropic glutamate receptor 4 (Rattus norvegicus), sequence (P31423 whole entry): as the sequence (P31423 whole entry) above

%max [1, 23] [%]	EC50 [2] [nM]	Compound	further results
102	8900	O=C1CCSC[C@@H](C(=O)Nc2cc(F)cc(F)c2)N1	–
97	35	O=C1CCSC[C@@H](C(=O)Nc2cc(Br)cc(Br)c2)N1	Kp uu [3]: 0.1; fraction unbound [4]: 0.006; fraction unbound [5]: 0.011; Kp [6]: 0.19; fraction unbound [7]: 0.007
–	> 30000	O=C1CCSC[C@H](C(=O)Nc2cccc(Br)c2)N1	–
108	33	O=C1CCSC[C@@H](C(=O)Nc2cc(Cl)cc(Br)c2)N1	inhibition in vivo at 10 mg/kg (Rattus norvegicus [8]): 42.6%; Activity (Rattus norvegicus [9]): Dose-dependent effect; Kp uu [3]: 0.7; fraction unbound [4]: 0.028; IC50 [10]: > 10000 nM; fraction unbound [5]: 0.018; IC50 [11]: > 10000 nM; IC50 [12]: > 10000 nM; Kp [6]: 0.45; IC50 [13]: > 10000 nM; Time (Rattus norvegicus [14]): 22.2 s; IC50 [15]: > 10000 nM; inhibition in vivo at 30 mg/kg (Rattus norvegicus [16]): 55.4%; Time (Rattus norvegicus [17]): 36.6 s; fraction unbound [7]: 0.011; inhibition in vivo at 3 mg/kg (Rattus norvegicus [18]): 26.5%; solubility kinetic [19]: 6.2 µM (≈ 2.25 µg/mL); Time (Rattus norvegicus [20]): 28.6 s
88	273	O=C1CCSC[C@@H](C(=O)Nc2cc(Cl)cc(Cl)c2)N1	–
–	–	Fc1ccc(Nc2n[nH]c3cccnc23)cc1Cl	inhibition (INH) (Rattus norvegicus [21]): 64%; Time (Rattus norvegicus [22]): 17.9 s
112	278	O=C1CCSC[C@@H](C(=O)Nc2cc(F)cc(Cl)c2)N1	–
98	6200	O=C1CCSC[C@@H](C(=O)Nc2cccc(Br)c2)N1	–
–	–	O=C(NC1CC(F)(F)C1)c1nsc2cc(Nc3n[nH]c4cccnc34)ccc12	solubility kinetic [19]: 0.9 µM (≈ 0.36 µg/mL)
120	148	O=C1CCSC[C@@H](C(=O)Nc2cccc(Cl)c2)N1	fraction unbound [4]: 0.01; fraction unbound [5]: 0.02; fraction unbound [7]: 0.03
–	> 10000	Cc1cc(C)cc(NC(=O)[C@@H]2CSCCC(=O)N2)c1	%max [1]: < 30%
102	558	O=C1CCSC[C@@H](C(=O)Nc2cc(F)cc(I)c2)N1	–
104	76	O=C1CCSC[C@H](C(=O)Nc2cc(Br)cc(Br)c2)N1	–
98	64	O=C1CCSC[C@H](C(=O)Nc2cc(Cl)cc(Br)c2)N1	–
101	115	O=C1CCSC[C@@H](C(=O)Nc2cc(Br)cc(I)c2)N1	–
102	950	O=C1CCSC[C@@H](C(=O)Nc2cc(C(F)(F)F)cc(C(F)(F)F)c2)N1	–
87	1090	Cc1cc(Cl)cc(NC(=O)[C@@H]2CSCCC(=O)N2)c1	–
101	351	O=C1CCSC[C@@H](C(=O)Nc2cc(F)cc(Br)c2)N1	–
